Data published in US20140004079A1, “IN VIVO DENDRITIC CELL T[…]” (Agency for Science, Technology and Research, priority 2012, published 2014).
Entries after “also recorded” stand apart in the source; their conditions may differ.

Key:
Assay type in all cases: cell-based, human
[1] = system: sorted APC populations from chronic HBV patients; assay: Ex vivo antigen presentation assay: sorted APCs activated overnight, co-cultured with HBsAg-specific TCR redirected T cells, IFN-γ Elispot; conditions: for cross-presentation of circulating HBsAg (T cell activation): mDC, CD14 MN, CD16 MN or B cells of chronic HBV patients, short-term activation, HBsAg-specific TCR transduced T cells
Experimental: Sorted APC populations; CD11c DC, CD141 DC, CD123 pDC, CD14 MN, CD16 MN and CD20 B cells were cultured overnight in media alone or under activating conditions +/−[…] recombinant HBsAg (Kindly provided by DynaVax). Cells were activated with 10 μg/ml polyI:C (TLR-3), 5 μM CpG ODN2216 (TLR-9), 1 μg/ml LPS (TLR-4), 5 μg/ml Imiquimod (TLR-7), 1 μg/ml ssRNA40 (TLR-8) (InvivoGen), 1000 U/ml IFN-α or 1000 U/ml IFN-γ (R&D systems). Following overnight incubation, APC populations were thoroughly washed and transferred to anti-IFN-γ coated Elispot plates and co-cultured with CD8 s183-TCR or s171-TCR redirected T cells at 5:1 E:T ratio (normally 5,000 APCs/well but as low as 1000 CD141 DC/well) for 24 h. APCs pulsed with 5 μg/ml HBs183-91(FLLTRILTI), HBs171-80 (FLGPLLVLQA) or HBc18-27 ([…]) peptide served as positive control for T cell activation. IFN-γ Elispot was performed as described previously in Tan et al 2008, using 5 μg/ml of 1-DIK for capture and 0.5 μg/ml 7B6-1-Biotin plus Streptavidin-ALP for detection (Mabtec) (Tan, A. T, Loggi, E., Boni, C., Chia, A. Gehring, A. J., Sastry, K. S., Goh, V., Fisicaro, P., Andreone, P., Brander, C., et al. 2008. Host ethnicity and virus genotype shape the hepatitis B virus-specific T-cell repertoire. J. Virol 82: 10986-10997). Elispot plates were developed and analyzed using CTL Immunospot analyzer. Cutoff values for positive responses were set according to cumulative data from healthy donors and HLA mismatched chronic HBV responses (data not shown). Wells were considered positive if responses were above 20 spot forming units/50,000 T cells.
APC populations were sorted from 7 HLA-A2+ chronic HBV patients or healthy donors to greater than 98% purity. TCR transduced T cells were then cultured at 5:1 effector:target ratio with each APC population (typically 5,000 APC/well for Elispot and 10,000 APC/well for intracellular cytokine staining) and T cell activation was monitored using IFN-γ intracellular cytokine staining or IFN-γ Elispot. For intracellular cytokine staining, cells were co-cultured overnight in V-bottom 96 well plates in 2 μg/ml brefeldin A. Cells were labeled with viability dye, stained with CD8-Horizon V500 (BD Biosciences) and fixed in cytofix/cytoperm (BD Biosciences). Cells were then stained with IFN-γ-Horizon V450 (BD Biosciences) to monitor T cell activation. As positive control, CD14 MN were pulsed with 5 μg/ml HBs183-91 or HBc18-27 peptide for 1 h and washed. IFN-γ Elispot was performed as described previously using 5 μg/ml of 1-DK1 for capture and 0.5 μg/ml 7B6-1-Biotin plus Streptavidin-ALP for detection (Mabtec). Wells were considered positive if responses were above 20 spot forming units/25,000 T cells. An HLA-A2+ healthy donor was included in each experiment to determine the background for each experiment. HLA-A2− donors were also tested to confirm specificity and restriction of the transduced T cells (data not shown).

[2] = system: healthy donor CD14 MN; assay: Cross-presentation by healthy donor CD14 MN loaded with HBV antigen at day zero and differentiated to moDC, IFN-γ elispot; conditions: differentiation alone, antigen captured on day zero
Experimental: (§1) CD14+ MN were isolated from healthy donors and chronic HBV patients by FACs sorting or positive selection using CD14 micobeads (greater than 90% purity; Miltenyi Biothech). Purified monocytes were then cultured in RPMI 1640 supplemented with 10% heat-inactivated FBS, 20 mM HEPES, 0.5 mM sodium pyruvate. 100 U/ml penicillin, 100 μg/ml streptomycin, MeM amino acids, Glutamax, MeM nonessential amino acids, 55 μM 2-mercaptoethanol (Invitrogen). GM-CSF+IL-4 moDC were made by culturing CD14 MN in 50 ng/ml (1500 U/ml) IL-4 and 50 ng/ml (750 U/ml) GM-CSF (R&D systems) for 6 d. GM-CSF+IL-15 (R&D Systems) moDC were made by culturing CD14 MN in 100 ng/ml (1500 U/ml) GM-CSF+200 ng/ml IL-15. Half of the media was removed after 3 d and replaced with complete RPMI containing cytokines. After 6 d of incubation, moDC were stained with CD14-PerCp (Miltenyi Biotech), HLA-DR alexa700 (eBioscience), CD80-FITC (BD Bioscience) and CD86-APC (Biolegend) to confirm differentiation.
(§2) Six day moDC were cultured overnight in media alone or activated with 10 μg/ml polyI:C or 0.1 ug/ml LPS (Invivogen)+50 ng/ml soluble HEK-derived CD40L (R&D Systems). Following overnight incubation, moDC were washed three times with HBSS and co-cultured at 2:1 effector:target ratio (10,000 T cells:5000 moDC) with CD8 HBs183-91T or HBs171-80-specific TCR redirected T cells for IFN-γ elispot. […]

[3] = system: CD14 MN from chronic HBV patients; assay: Cross-presentation of in vivo captured HBsAg by monocyte-derived DC from chronic HBV patients, IFN-γ elispot; conditions: moDC activated overnight, s183-TCR and s171-TCR CD8 T cells
Experimental: as §1, §2

Molecule: interferon-α [IFN-α]
- cross-presentation of circulating HBsAg (T cell activation) [1]: T cell activation was not observed
- activation of HBsAg-specific T cells by activated pDC ex vivo ([1]; pDC of chronic HBV patients, in vivo captured HBsAg): Neither resting pDC nor pDC activated with a panel of TLR ligands and IFN-α activated HBsAg-specific T cells; also recorded: none of these conditions resulted in HBsAg-specific T cell activation

Molecule: granulocyte-macrophage colony-stimulating factor [GM-CSF]
- cross-presentation of HBV antigen to virus-specific CD8 T cells after differentiation ([2]; 3 d): resulted in cross-presentation of HBV antigen

Molecule: Polyinosinic-polycytidylic acid [polyI:C, reference compound]
- effect of moDC activation on T cell response [3]: increase the T cell response
- cross-presentation of exogenously loaded recombinant HBsAg by CD141 DC ([1]; CD141 DC loaded with rHBsAg and stimulated): efficiently cross-presented recombinant HBsAg
- activation of CD8 T cells by activated CD141 DC directly ex vivo ([1]; CD141 DC of chronic HBV patients, in vivo captured HBsAg): neither non-activated nor polyI:C activated CD141 DC from chronic HBV patients stimulated CDS T cells; also recorded: neither non-activated nor polyI:C activated CD141 DC from chronic HBV patients activated CD8 T cells

Molecule: IFN-γ: cytokine, 1000 U/ml for APC activation
- cross-presentation of circulating HBsAg (T cell activation) [1]: T cell activation was not observed

B1: IL-32: cytokine, 100 ng/ml IL-32 for 6 d (protein, UniProt P24001 31-234, looked up)
Interleukin-32: AWVSACDTEDTVGHLGPWRDKDPALWCQLCLSSQHQAIERFYDKMQNAESGRGQVMSSLAELEDDFKEGYLETVAAYYEEQHPELTPLLEKERDGLRCRGNRSPVPDVEDPATEEPGESFCDKVMRWFQAMLQRLQTWWHGVLAWVKEKVVALVHAVQALWKQFQSFCCSLSELFMSSFQSYGAPRGDKEELTPQKCSEPQSSK
- cross-presentation of HBV antigen to virus-specific CD8 T cells after differentiation ([2]; 6 d): resulted in cross-presentation of HBV antigen
